# Patent US20130251783A1, “LIPOSOMES CONTAINING PERMEATION ENHANCERS FOR ORAL DRUG DELIVERY” (Universitat Heidelberg, priority 2011, published 2013)
# How the values were obtained:
# Caco-2 cells [1] = test: LDH release cytotoxicity assay; format: cell-based; settings: free solution, all concentrations (likely inhibition of the enzymatic reaction)
# Method: (§1) Caco-2 cells were grown in T-75 flasks in Dulbecco's modified Eagle's medium (DMEM) supplemented with 10% FBS, 1% non-essential amino acids, 1% pyruvate, 1% L-glutamine, 100 U/ml penicillin and 100 μg/ml streptomycin at 37° C. in an atmosphere with 5% CO2 and in equilibrium with distilled water. The medium was changed every other day, and the cells were subcultured at 80% confluency. Cells were used in the experiments described below.
# (§2) Cytotoxicity of liposomes and bio-enhancer solutions was investigated using the Alamar Blue® assay (AbD Serotec, Oxford, UK) and by determination of the release of lactate dehydrogenase (LDH) with a test kit (Sigma-Aldrich, Taufkirchen, Germany). […] The formed NADH in turn reduces a tetrazolium salt to a red-coloured product which can be determined photometrically. […]
# For the LDH release assay, cells were treated similar as described for the Alamar Blue® cytotoxicity assay with little changes. […] The reaction was stopped by the addition of 10 μl 1N HCl and subsequently, the colour change of the dye was measured by a Tecan microplate absorbance reader (Sunrise, Tecan, Grodig, Austria) at a wavelength of 490 nm and a reference wavelength of 700 nm. To eliminate the influence of the liposomes and the bio-enhancers on the absorbance, a blank was measured of the formulations with a concentration equal to the final assay concentration. […]
# Caco-2 cells [2] = test: Alamar Blue cytotoxicity assay; format: cell-based
# Method: as §1, §2
# In terms of the Alamar Blue® assay, groups of eight wells were incubated with the solutions of the bio-enhancers in five concentrations (1 μM, 10 μM, 100 μM, 1 mM and 10 mM) and the liposomal formulations in three concentrations (0.5 mM, 5 mM and 50 mM total lipid) in KRB for 2, 4, and 8 h at 37° C. […] After 4 h at 37° C., the colour change of the dye was determined at an excitation wavelength of 530 nm and an emission wavelength of 590 nm in a Fluoroskan Ascent® plate reader. […] Cell viability was expressed as follows: […]
# rabbits = settings: cited from earlier work
# rats [3] = settings: cited from earlier work
# Caco-2 cells [4] = settings: cited from earlier work
# rats [5] = settings: rats fed daily around 37.7 mg/kg for two years; cited from earlier work
structure (smiles),measurement,setting,value
"CCCCCCCCCCCCCCCC[n+]1ccccc1 [CpCl, cetylpyridinium chloride]",LDH release compared to incubation with KRB,Caco-2 cells [1],lower as the release after incubation with KRB
same,Toxicity compared among the investigated enhancers,Caco-2 cells [2]; Caco-2 cells,most toxic
same,Cytotoxicity (cell viability),"Caco-2 cells [2]; free enhancer in KRB, concentration 1 mM",strong cytotoxicity
same,LD50,rabbits,400 mg/kg
same,LD50,rats [3],200 mg/kg
"C[C@H](CCC(=O)N(C)CC(=O)O)[C@H]1CC[C@H]2[C@@H]3[C@H](O)C[C@@H]4C[C@H](O)CC[C@]4(C)[C@H]3C[C@H](O)[C@]12C [CS, cholylsarcosine]",Cytotoxicity in WST-1 transformation assay,Caco-2 cells [4],no cytotoxicity
"CCCCCCCCCCCCCCCCCCN [SA, stearylamine]",Side effects,rats [5],without causing any side effects
